# Reference: ChEMBL document CHEMBL1124272, “Only one pharmacophore is required for the kappa opioid antagonist selectivity of norbinaltorphimine” (J Med Chem, 1988)
# Experiments:
# [1] = molecular target: Mu-type opioid receptor (Cavia porcellus) (UniProt P97266); conditions: Ileum, 20 nM
# Description: Antagonistic activity at Opioid receptor mu 1 in electrically stimulated Guinea pig ileum using morphine as the agonist at 20 nM concentration
# [2] = molecular target: Kappa-type opioid receptor (Cavia porcellus) (UniProt P41144); conditions: Ileum, 20 nM
# Description: Antagonistic activity at Opioid receptor kappa 1 in electrically stimulated Guinea pig ileum using ethylketazocine as the agonist at 20 nM concentration
# [3] = molecular target: Delta-type opioid receptor (Homo sapiens) (UniProt P41143); conditions: Cavia porcellus; Ileum; 20 nM
# Sequence of Delta-type opioid receptor (Homo sapiens) (P41143 whole entry): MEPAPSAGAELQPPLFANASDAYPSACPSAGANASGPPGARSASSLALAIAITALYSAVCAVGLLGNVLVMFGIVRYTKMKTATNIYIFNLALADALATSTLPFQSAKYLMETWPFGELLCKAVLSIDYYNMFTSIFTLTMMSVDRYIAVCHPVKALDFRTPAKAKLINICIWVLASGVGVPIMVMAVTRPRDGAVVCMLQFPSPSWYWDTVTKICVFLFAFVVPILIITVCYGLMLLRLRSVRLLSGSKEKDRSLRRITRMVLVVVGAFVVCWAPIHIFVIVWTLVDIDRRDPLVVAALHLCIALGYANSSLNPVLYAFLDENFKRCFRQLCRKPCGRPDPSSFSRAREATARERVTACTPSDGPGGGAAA
# Description: Antagonistic activity at Opioid receptor delta 1 in electrically stimulated Guinea pig ileum using DADLE as the agonist at 20 nM concentration
# [4] = molecular target: Delta-type opioid receptor (Homo sapiens) (UniProt P41143); conditions: Cavia porcellus; Ileum; 20 nM; remark: listed apart in the source
# Description: Antagonistic activity at Opioid receptor delta 1 in electrically stimulated Guinea pig ileum using DADLE as the agonist at 20 nM
# [5] = molecular target: Mu-type opioid receptor (Cavia porcellus) (UniProt P97266); conditions: Ileum, 100 nM
# Description: Antagonistic activity at Opioid receptor mu 1 in electrically stimulated Guinea pig ileum using morphine as the agonist at 100 nM
# Sequence of Mu-type opioid receptor (Cavia porcellus) (P97266 whole entry): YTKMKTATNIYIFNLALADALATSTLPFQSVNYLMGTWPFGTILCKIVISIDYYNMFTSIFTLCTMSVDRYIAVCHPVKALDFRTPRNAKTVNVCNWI
# Sequence of Kappa-type opioid receptor (Cavia porcellus) (P41144 whole entry): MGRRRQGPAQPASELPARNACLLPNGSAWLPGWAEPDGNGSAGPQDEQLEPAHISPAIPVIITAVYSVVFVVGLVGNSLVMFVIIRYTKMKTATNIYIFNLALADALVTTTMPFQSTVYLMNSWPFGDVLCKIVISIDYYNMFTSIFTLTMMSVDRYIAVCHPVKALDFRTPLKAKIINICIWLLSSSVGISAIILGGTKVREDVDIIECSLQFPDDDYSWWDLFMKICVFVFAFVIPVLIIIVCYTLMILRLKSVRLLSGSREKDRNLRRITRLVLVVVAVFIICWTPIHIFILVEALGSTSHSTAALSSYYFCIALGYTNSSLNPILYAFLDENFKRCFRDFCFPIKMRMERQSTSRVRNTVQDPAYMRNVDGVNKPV
smiles,measurement,setting,value
Oc1ccc2c3c1O[C@H]1c4[nH]c5c(c4C[C@@]4(O)[C@@H](C2)N(CC2CC2)CC[C@]314)C[C@]1(O)[C@@H]2Cc3ccc(O)c4c3[C@]1(CCN2CC1CC1)[C@@H]5O4,Ke,[1],1.1 nM
same,Ke,[2],0.08 nM
same,Ke,[3],1.3 nM
Oc1ccc2c3c1O[C@H]1c4[nH]c5c(c4C[C@@]4(O)[C@@H](C2)N(CC2CC2)CC[C@]314)C[C@@]1(O)[C@H]2Cc3ccc(O)c4c3[C@@]1(CCN2CC1CC1)[C@H]5O4,Ke,[4],10 nM
Oc1ccc2c3c1O[C@@H]1c4[nH]c5c(c4C[C@]4(O)[C@H](C2)N(CC2CC2)CC[C@@]314)C[C@]1(O)[C@@H]2Cc3ccc(O)c4c3[C@]1(CCN2CC1CC1)[C@@H]5O4,Ke,[5],77 nM
